Target: T1, LIMK1 (Homo sapiens, UniProt P53667)
T1 construct: purchased Thermo Fisher Scientific (Life Technologies) SelectScreen
Assay: SelectScreen LanthaScreen
Assay type: binding
Conditions: read-out: % displacement
Method in brief: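 NU5455 was profiled across the SelectScreen Broad panel of kinase activity and binding assays. Z'LYTE reactions such as CSF1R ran at apparent Km ATP, while the Adapta CAMK1 assay used ATP listed as 10. Values are given as percent.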

T1 sequence (P53667 whole entry): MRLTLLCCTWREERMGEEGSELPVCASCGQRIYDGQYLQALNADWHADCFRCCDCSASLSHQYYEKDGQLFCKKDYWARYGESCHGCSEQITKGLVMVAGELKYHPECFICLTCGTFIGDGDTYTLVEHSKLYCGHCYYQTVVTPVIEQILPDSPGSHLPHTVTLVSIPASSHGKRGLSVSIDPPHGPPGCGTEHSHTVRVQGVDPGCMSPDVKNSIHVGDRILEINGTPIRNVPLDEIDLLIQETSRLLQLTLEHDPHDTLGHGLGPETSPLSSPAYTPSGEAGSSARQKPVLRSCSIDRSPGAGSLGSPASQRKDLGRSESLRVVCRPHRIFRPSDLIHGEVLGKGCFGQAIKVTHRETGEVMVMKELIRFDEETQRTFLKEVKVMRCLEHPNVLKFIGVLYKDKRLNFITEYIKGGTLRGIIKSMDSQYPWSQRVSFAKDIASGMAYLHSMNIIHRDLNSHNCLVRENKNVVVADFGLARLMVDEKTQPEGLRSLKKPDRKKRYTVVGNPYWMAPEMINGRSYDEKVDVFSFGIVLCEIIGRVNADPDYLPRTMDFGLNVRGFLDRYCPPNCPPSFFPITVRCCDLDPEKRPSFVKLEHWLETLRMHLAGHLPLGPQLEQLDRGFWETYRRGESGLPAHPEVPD

CN(C(=O)CN1CCOCC1)c1ccc2sc3c(-c4cccc5c(=O)cc(N6CC7CCC(C6)O7)oc45)cccc3c2c1 [NU5455]
inhibition at 1 µM: -1.7%

From publication PMC6934184, “Selective DNA-PKcs inhibition extends the therapeutic index of localized radiotherapy and chemotherapy” (The Journal of Clinical Investigation, 2019)
